From article PMC11493283, “N^4-Hydroxycytidine/molnupiravir inhibits RNA virus-induced encephalitis by producing less fit mutated viruses” (PLOS Pathogens, 2024)

Tests used:
LACV [1] = assay: Antiviral efficacy against LACV in Vero cells, virus titer by plaque assay; assay type: cell-based; settings: La Crosse virus, LACV 0.1 MOI, 24 hpi, read-out: EC50 (50% reduction in virus titer)
Protocol: (§1) Cells were seeded in 24-well plates (1 × 10^5 cells/well) and infected with LACV (0.1 MOI). At 1 hour post infection (hpi), medium was replaced with fresh medium containing 6 different concentrations for each of the drugs. RBV and FAV were tested at concentrations of 1, 3, 10, 30, 100, and 300 μM, while NHC was tested at concentrations of 0.1, 0.3, 1, 3, 10 and 30 μM. DMSO was used as vehicle control. At 24 hpi, the cell supernatant was harvested, centrifuged to eliminate cell debris and stored at −80 °C for sequencing (described below) and plaque assay following the method of Ojha et al. 2021 [32]. Quantified virus titers were plotted to represent antiviral efficacy. The EC50 (50% effective concentration representing a 50% reduction in virus titer) was determined by extrapolating a dose-response curve using GraphPad Prism 8 and 9.

LACV [2] = assay: Antiviral efficacy against LACV in N2a cells, virus titer by plaque assay; assay type: cell-based; settings: La Crosse virus, LACV 0.1 MOI, 24 hpi, read-out: EC50 (50% reduction in virus titer)
Protocol: as §1

LACV [3] = assay: Antiviral efficacy against LACV in hNSCs, virus titer by plaque assay; assay type: cell-based; settings: La Crosse virus, LACV 0.1 MOI, 24 hpi, read-out: EC50 (50% reduction in virus titer)
Protocol: as §1

LACV [4] = assay: MPID-NGS mutation rate of LACV in cell culture; assay type: cell-based, La Crosse virus; settings: Vero cells; RBV, FAV: increase only at 100 μM; NHC also in hNSCs and N2a
Protocol: as §1
(§2) We used a Primer ID (PID) library preparation approach with Illumina MiSeq next-generation sequencing (NGS) to examine the mutagenic effects of these drugs on viral RNA allowing deep coverage of the viral population while maintaining a low method error rate (1 in 10,000 nucleotides). We designed cDNA primers targeting a 372 bp region of the RdRp gene within the L segment (referred as L7 in the study), and included a second amplicon covering a 455 bp portion of the M segment (referred as M4 in the study). Each cDNA primer included a block of random nucleotides (11 bases long) as the Primer ID/unique molecular identifier (UMI). […] After gel purification/extraction of the PCR product (Qiagen MinElute Gel Extraction kit), the extracted libraries were quantified using a Qubit fluorimeter and subjected to Agilent TapeStation analysis. For each sequencing run, 24 quantified libraries were pooled for MiSeq 300 base paired-end sequencing at the UNC High Throughput Sequencing Facility. […] Each type of substitution rate was calculated against the wildtype sequence at the sequenced regions. The sequencing date were submitted to the National Center for Biotechnology Information (NCBI) Sequence Read Archive (SRA), accession number is PRJNA1092655.

Vero cells = settings: copied and converted to µM from µg/ml, ref not given; cited from earlier work
hNSCs = settings: copied and converted to µM from µg/ml, ref not given; cited from earlier work
LACV [5] = assay: LACV encephalitis mouse model, IP inoculation; assay type: in vivo, C57BL/6 mice
Protocol: (§3) Viral RNA was isolated using the Zymo Direct-zol RNA MiniPrep Kit (Zymo Research) per the manufacturer’s directions. First-strand complementary DNA (cDNA) was generated using iScript Reverse Transcriptase (Bio-Rad). qRT-PCR was performed using PowerUp SYBR Green Master Mix (ThermoFischer) on QuantStudio 6 (Applied Biosystems). Primers used for the reaction were synthesized by Integrated DNA Technologies (IDT) to quantify LACV viral RNA, targeting the M segment of the genome: forward primer 5’-[…]-3’, reverse primer 5’-[…]-3’.
(§4) All animal experiments were performed following the protocols 2019-023-E and 2022-019-E approved by the National Institute of Allergy and Infectious Disease/National Institutes of Health/Rocky Mountain Laboratories Institutional Animal Care and Use Committee. For this study, a mix of male and female C57BL/6 mice at 23 to 25 days old were used. Mice were divided evenly and infected with LACV at either 1 × 10^3 pfu by an IP route or 1 x 10^2 pfu by an IN route. IP-infected mice were started on treatment with MOV at either the date of infection or at 3 dpi; the IN-infected mice were started on treatment on the day of infection. MOV was diluted in 10% polyethylene glycol (PEG), 2.5% Cremophor RH40, and 87.5% sterile water which was used as vehicle control. For oral administration, 300 mg/kg of MOV twice a day was given for up to 10 consecutive days using a straight 24-gauge ball-tip disposable feeding needle (Instech). Mice were examined twice daily for 28–30 days for clinical signs of LACV-induced neurologic disease, which mostly involved limb paralysis, ataxia, or repeated seizures. Mice showing one or more of these clinical symptoms were scored as having clinically significant disease and were subsequently euthanized for tissue removal. Occasionally, LACV-infected mice died from the acute seizures. These mice were also scored as having clinically significant disease and underwent tissue removal when possible.
(§5) Brain tissue and lymph nodes were harvested from mice with clinical symptoms (as described above) or at 5 dpi and stored at -80°C. Half of the sagittal section of the brain tissue was used for plaque assays, and the other half for RNA isolation for qRT-PCR and sequencing. For the plaque assay, brain tissues were homogenized in the presence of DMEM using the Bead Mill 24 (Fisher Scientific) homogenizer at 5,300 rpm for 25 seconds. Homogenized samples were centrifuged at 5000 x g for 10 min. Supernatants were then diluted in DMEM containing 10% FBS to 10^−1 to 10^−7 dilutions and subjected to a plaque assay.
We used a digital scanner to scan the plaque assay plates. Digitized images were imported into FIJI/ImageJ v1.52n, and pixel calibration values were calculated based on the well diameter and corresponding digitized image. To quantify plaque size (surface area), wells with clearly isolated plaques were selected for segmentation and analysis. The image lookup table for each well was inverted followed by binarization prior to analysis, with a minimum area of 0.39 mm^2 to eliminate false positives due to slight variations in crystal violet staining. The measurements were imported into Microsoft Excel for data compilation, and graphed and analyzed using GraphPad Prism v9.3.1. Analysis of plaque size was done only when the plaque assays for different virus samples were done in parallel.

LACV [6] = assay: LACV encephalitis mouse model, IN inoculation; assay type: in vivo, C57BL/6 mice
Protocol: as §3, §4, §5

LACV [7] = assay: MPID-NGS mutation rate of LACV RNA in brain tissue, IP-infected mice; assay type: in vivo, C57BL/6 mice
Description: We used a Primer ID (PID) library preparation approach with Illumina MiSeq next-generation sequencing (NGS) to examine the mutagenic effects of these drugs on viral RNA allowing deep coverage of the viral population while maintaining a low method error rate (1 in 10,000 nucleotides). We designed cDNA primers targeting a 372 bp region of the RdRp gene within the L segment (referred as L7 in the study), and included a second amplicon covering a 455 bp portion of the M segment (referred as M4 in the study). Each cDNA primer included a block of random nucleotides (11 bases long) as the Primer ID/unique molecular identifier (UMI). Extracted viral RNA was reversed transcribed using SuperScript III (Thermal Fisher) to make cDNA in a single reaction with the two different cDNA primers. After bead purification, the cDNA was amplified by PCR using a mixture of forward primers and a universal reverse primer, followed by a second round of PCR to incorporate Illumina sequencing adapters and barcodes within the amplicons. After gel purification/extraction of the PCR product (Qiagen MinElute Gel Extraction kit), the extracted libraries were quantified using a Qubit fluorimeter and subjected to Agilent TapeStation analysis. For each sequencing run, 24 quantified libraries were pooled for MiSeq 300 base paired-end sequencing at the UNC High Throughput Sequencing Facility. Primers used for the library prep can be found in S1 Table. The initial Primer ID data were processed using the Illumina bcl2fastq pipeline (version 2.20.0), and then template consensus sequences (TCSs) were constructed using the tcs pipeline version 2.5.1 (https://primer-id.org/). Each type of substitution rate was calculated against the wildtype sequence at the sequenced regions. The sequencing date were submitted to the National Center for Biotechnology Information (NCBI) Sequence Read Archive (SRA), accession number is PRJNA1092655.
All animal experiments were performed following the protocols 2019-023-E and 2022-019-E approved by the National Institute of Allergy and Infectious Disease/National Institutes of Health/Rocky Mountain Laboratories Institutional Animal Care and Use Committee. For this study, a mix of male and female C57BL/6 mice at 23 to 25 days old were used. Mice were divided evenly and infected with LACV at either 1 × 10^3 pfu by an IP route or 1 x 10^2 pfu by an IN route. […] Mice showing one or more of these clinical symptoms were scored as having clinically significant disease and were subsequently euthanized for tissue removal. […] These mice were also scored as having clinically significant disease and underwent tissue removal when possible.

LACV [8] = assay: MPID-NGS mutation rate of LACV RNA in brain tissue, IN-infected mice; assay type: in vivo, C57BL/6 mice; settings: IN infection
Description: as §2, with “(UMI). Extracted viral RNA was reversed transcribed using SuperScript III (Thermal Fisher) to make cDNA in a single reaction with the two different cDNA primers.” for “(UMI).”, “PRJNA1092655. […]” for “PRJNA1092655.”

[9] = day 5, MOV from day 0, IP infection
[10] = oral MOV, started on the day of infection

NC(=O)c1nc(F)c[nH]c1=O [FAV, favipiravir]
EC50 (LACV [1]): 58.3 µM | EC50 (LACV [2]): 30.1 µM | EC50 (LACV [3]): 206 µM | mutation rate of LACV grown in presence of drug (LACV [4]): did not see a significant increase in mutation rates | CC50 (Vero cells): 3340 µM | CC50 (hNSCs): 1060 µM

CC(C)C(=O)OC[C@H]1O[C@@H](n2ccc(NO)nc2=O)[C@H](O)[C@@H]1O [MOV, molnupiravir]
mice survived through 28-30 dpi (LACV [5]; MOV 300 mg/kg oral twice daily, delayed until 3 dpi, LACV 10^3 pfu IP): 15% | mice survived to 28-30 dpi (LACV [5]; MOV 300 mg/kg oral twice daily, started on the day of infection, LACV 10^3 pfu IP): 31% | infectious virus titer in brain tissue vs vehicle (plaque assay) (LACV [5]; [9]): significantly decreased | viral RNA load in brain tissue vs vehicle (qRT-PCR) (LACV [5]; [9]): significantly decreased | viral RNA load in lymph nodes vs vehicle (qRT-PCR) (LACV [5]; [9]): significantly decreased | decrease in neurological disease development (LACV [5]; [10]): 31% | mice survived out of 13 (LACV [5]; [10]): 4 | average plaque size of virus from brain vs virus not exposed to MOV (LACV [5]; virus isolated from brain, IP infection): significantly smaller | mice with clinical signs out of 13 (LACV [6]; MOV 300 mg/kg oral twice daily, IN infection, vehicle 7): 4 | reduction in disease vs vehicle (LACV [6]; MOV oral from day of infection, IN infection): ~50% | infectious virus titer in the brain vs vehicle (plaque assay) (LACV [6]; clinical mice, IN infection): slightly, but not significantly decreased | viral RNA in the brain vs vehicle (qRT-PCR) (LACV [6]; clinical mice, IN infection): significantly decreased | disease reduced by (abstract) (LACV [6]; virus administered intranasally): 23% | increase in C-to-U transition rate vs vehicle (LACV [7]; brain tissue, IP infection): 9.1 per 10,000 bases | increase in G-to-A transition rate vs vehicle (LACV [7]; brain tissue, IP infection): 5.2 per 10,000 bases | increase in total mutation rate of the virus vs vehicle (LACV [7]; brain tissue, IP infection, averaged across amplicons): 2.8 per 10,000 bases | decrease in viral load in brain tissue per 1 mutation increase per 10,000 nucleotides (LACV [7]; estimate from mutation rate vs LACV copy number): approximately 4.4 fold | increase in C-to-U mutations vs vehicle (LACV [8]): 4.3 per 10,000 bases | increase in G-to-A mutations vs vehicle (LACV [8]): 4.3 per 10,000 bases
